Measurements published in BindingDB's records for doi:10.1016/j.ejmech.2011.07.022 (Medical University of Warsaw, 2011).

Molecular target: T1, 5-hydroxytryptamine receptor 1A (Rattus norvegicus, UniProt P19327)
T1 sequence (P19327 whole entry): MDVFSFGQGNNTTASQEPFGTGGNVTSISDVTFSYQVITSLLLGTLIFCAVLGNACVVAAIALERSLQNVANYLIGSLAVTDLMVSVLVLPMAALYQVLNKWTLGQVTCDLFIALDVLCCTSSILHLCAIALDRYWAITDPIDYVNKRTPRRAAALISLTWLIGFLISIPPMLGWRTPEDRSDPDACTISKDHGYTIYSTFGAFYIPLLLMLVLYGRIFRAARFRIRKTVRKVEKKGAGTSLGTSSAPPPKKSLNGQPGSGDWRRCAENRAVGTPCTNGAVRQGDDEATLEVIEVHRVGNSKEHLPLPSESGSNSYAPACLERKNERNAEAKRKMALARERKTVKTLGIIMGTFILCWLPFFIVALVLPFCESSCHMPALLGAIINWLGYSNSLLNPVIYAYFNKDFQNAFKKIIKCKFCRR
Test: Displacement of [3H]8OH-DPAT from 5HT1A in rat brain cerebral cortex after 15 mins by scintillation counting

Q: How did the Ki turn out when `COc1ccc(Cl)cc1C(=O)NC1C[C@H]2CC[C@H](C1)N2Cc1ccco1` (stereo partly specified) was run?
A: > 100 µM
